Laboratory results published in patent US20220183282A1, “Fatty Acid Derivatives For Improving The Effect Of Agrochemical Actives” (priority 2019, published 2022).
Like-named read-outs stand apart in the source and are kept apart here.

Tests used:
apple leaf cuticles [1] = assay: Penetration of Mesosulfuron-methyl through isolated apple leaf cuticles in the presence of test substances; format: in vitro ADME; details: for Mean penetration for Mesosulfuron-methyl after time: Mesosulfuron-methyl 0.1 g/L in spray liquid, 10° C./61% rel. air humidity
Text: (§1) Surfactants can affect the absorption of (active) ingredients through membranes such as skin, films or the plant cuticle. As a “finite-dose” application, it is known for the single administration or application of a solution, cream, gel etc. to a membrane that the absorption of active ingredient can be influenced by some additives such as surfactants even after wetting.
(§2) The principle of the method has been published and described in detail e.g. in WO-A-2005/194844 or WO2017211572 A1). The leaf cuticles were enzymatically isolated in the manner described in the literature from apple leaves of orchard trees in a commercial stone fruit growing facility near Frankfurt am Main in 2017. The stomata-free cuticles were first dried under air and then installed into stainless steel diffusion cells. After application to the original upper side of the leaf and evaporation of the test liquid, i.e. of the spray liquids of the active ingredients with or without the inventive substances or comparative compositions, the diffusion cells were transferred into thermostated blocks and charged with aqueous liquid. The water used to make up the aqueous test liquids was local tap water (of known composition). At regular intervals, aliquot samples were taken and the proportion of active ingredient penetrated was determined by HPLC or alternatively by radio-chemical method where radio-labelled active ingredient was used as tracer to determine the concentration. During the experiment, the temperature in the system (block, diffusion cells, liquids, etc.) and the air humidity above the spray deposit on the cuticle were controlled. […] The analytical determination by means of HPLC (1290 Infinity, Agilent) was effected thereafter with a Kinetex column 30×2, 1 mm, 2.6μ C18 100 A (Phenomenex), taking a 20 μL aliquot as injection volume at the specified times. In each case, the geometric mean values of the penetration for intact membranes at the mean measurement times are given.

apple leaf cuticles [2] = assay: Penetration of Flufenacet through isolated apple leaf cuticles in the presence of test substances; details: for Mean penetration for Flufenacet after time: Flufenacet 0.75 g/L in spray liquid, 10° C./61% rel. air humidity
Text: as §1, §2

apple leaf cuticles [3] = assay: Penetration of MCPA through isolated apple leaf cuticles in the presence of test substances; details: for Mean penetration for MCPA after time: MCPA 1.5 g/L in spray liquid, 25° C./56% rel. air humidity
Text: as §1
(§3) The principle of the method has been published and described in detail e.g. in WO-A-2005/194844 or WO2017211572 A1). The leaf cuticles were enzymatically isolated in the manner described in the literature from apple leaves of orchard trees in a commercial stone fruit growing facility near Frankfurt am Main in 2017. The stomata-free cuticles were first dried under air and then installed into stainless steel diffusion cells. After application to the original upper side of the leaf and evaporation of the test liquid, i.e. of the spray liquids of the active ingredients with or without the inventive substances or comparative compositions, the diffusion cells were transferred into thermostated blocks and charged with aqueous liquid. The water used to make up the aqueous test liquids was local tap water (of known composition). At regular intervals, aliquot samples were taken and the proportion of active ingredient penetrated was determined by HPLC or alternatively by radio-chemical method where radio-labelled active ingredient was used as tracer to determine the concentration. During the experiment, the temperature in the system (block, diffusion cells, liquids, etc.) and the air humidity above the spray deposit on the cuticle were controlled. In the experiment, relative air humidity was constant throughout at 56% relative air humidity (air over supersaturated calcium nitrate) at a constant 10° C. or 25° C. The analytical determination by means of HPLC (1290 Infinity, Agilent) was effected thereafter with a Kinetex column 30×2, 1 mm, 2.6μ C18 100 A (Phenomenex), taking a 20 μL aliquot as injection volume at the specified times. In each case, the geometric mean values of the penetration for intact membranes at the mean measurement times are given.

apple leaf cuticles [4] = details: for Mean penetration for Benzyladenine after time: Benzyladenine 0.1 g/L in spray liquid
Text: as §1, §3

apple leaf cuticles [5] = assay: Penetration of Milbemectin through isolated apple leaf cuticles in the presence of test substances; format: in vitro ADME; details: for Mean penetration for Milbemectin after time: Milbemectin 0.03 g/L in spray liquid
Text: as §1, §3

apple leaf cuticles [6] = assay: Penetration of lodosulfuron-methyl through isolated apple leaf cuticles in the presence of test substances; format: in vitro ADME; details: for Mean penetration for lodosulfuron-methyl after time: lodosulfuron-methyl 0.1 g/L in spray liquid, 10° C./61% rel. air humidity
Text: as §1, §2

[7] = Dynamic surface tension, bubble pressure method (BP2100 tensiometer, Krüss); format: physicochemical
Protocol: Dynamic surface tension was determined via the bubble pressure method (BP2100 tensiometer, Krüss). Given a timespan of relevance for the spray application of agrochemicals in aqueous dilution (called the surface age in the bubble pressure method) of 200 milliseconds (ms), the value for dynamic surface tension in [mN/m] correlates with the adhesion on plants that are difficult to wet, such as barley (cereal). A value of 50 mN/m (at 20-21° C.) with respect to water (72.8 mN/m) results in an improvement in the adhesion from “zero adhesion” (0%) to about 50% (Baur P., Pontzen R.; 2007; Basic features of plant surface wettability and deposit formation and the impact of adjuvant; in R. E. Gaskin ed. Proceedings of the 8th International Symposium on Adjuvants for Agrochemicals; Publisher: International Society for Agrochemical Adjuvants (ISAA), Columbus, Ohio, USA).

CCCCCCCCC(=O)OCCOCCOCCOCCOCCOCCOC [A1, Pelargonic acid 6 EO ester methyl ether]
Mean penetration for Mesosulfuron-methyl after time (apple leaf cuticles [1]; test substance 1.0 g/L, 1 day): 1.9% | Mean penetration for Mesosulfuron-methyl after time (apple leaf cuticles [1]; test substance 1.0 g/L, 2 days): 3.6% | Mean penetration for Mesosulfuron-methyl after time (apple leaf cuticles [1]; test substance 3.0 g/L, 1 day): 4.2% | Mean penetration for Mesosulfuron-methyl after time (apple leaf cuticles [1]; test substance 3.0 g/L, 2 days): 5.2% | Mean penetration for Mesosulfuron-methyl after time (apple leaf cuticles [1]; test substance 10 g/L, 1 day): 9.2% | Mean penetration for Mesosulfuron-methyl after time (apple leaf cuticles [1]; test substance 10 g/L, 2 days): 10.9% | uptake of the active ingredient (Mesosulfuron-methyl), in words (apple leaf cuticles [1]; summary of Table 5): strongly increases the uptake | Mean penetration for Flufenacet after time (apple leaf cuticles [2]; test substance 1.0 g/L, 1 day): 10.7% | Mean penetration for Flufenacet after time (apple leaf cuticles [2]; test substance 1.0 g/L, 2 days): 16.9% | Mean penetration for Flufenacet after time (apple leaf cuticles [2]; test substance 10 g/L, 1 day): 18.2% | Mean penetration for Flufenacet after time (apple leaf cuticles [2]; test substance 10 g/L, 2 days): 28.0% | uptake of the active ingredient (Flufenacet), in words (apple leaf cuticles [2]; summary of Table 4, compared to the commercial formulation): strongly increases the uptake | Mean penetration for MCPA after time (apple leaf cuticles [3]; test substance 0.3 g/L, 0.5 day): 34.2% | Mean penetration for MCPA after time (apple leaf cuticles [3]; test substance 0.3 g/L, 1 day): 45.5% | Mean penetration for MCPA after time (apple leaf cuticles [3]; test substance 1.0 g/L, 0.5 day): 46.9% | Mean penetration for MCPA after time (apple leaf cuticles [3]; test substance 1.0 g/L, 1 day): 53.9% | uptake of the active ingredient (MCPA), in words (apple leaf cuticles [3]; summary of Table 3): strongly increases the uptake | Mean penetration for Benzyladenine after time (apple leaf cuticles [4]; test substance 0.3 g/L, 1 day): 4.2% | Mean penetration for Benzyladenine after time (apple leaf cuticles [4]; test substance 0.3 g/L, 2 days): 4.5% | Mean penetration for Benzyladenine after time (apple leaf cuticles [4]; test substance 0.8 g/L, 1 day): 9.7% | Mean penetration for Benzyladenine after time (apple leaf cuticles [4]; test substance 0.8 g/L, 2 days): 10.6% | Mean penetration for Benzyladenine after time (apple leaf cuticles [4]; test substance 1.5 g/L, 1 day): 17.2% | Mean penetration for Benzyladenine after time (apple leaf cuticles [4]; test substance 1.5 g/L, 2 days): 17.9% | Mean penetration for Benzyladenine after time (apple leaf cuticles [4]; test substance 3.0 g/L, 1 day): 17.9% | Mean penetration for Benzyladenine after time (apple leaf cuticles [4]; test substance 3.0 g/L, 2 days): 18.6% | uptake of the agrochemical active (Benzyladenine), in words (apple leaf cuticles [4]; summary of Table 10): strongly increases the uptake | Mean penetration for Milbemectin after time (apple leaf cuticles [5]; test substance 1.5 g/L, 1 day): 4.3% | Mean penetration for Milbemectin after time (apple leaf cuticles [5]; test substance 1.5 g/L, 2 days): 4.2% | Mean penetration for Milbemectin after time (apple leaf cuticles [5]; test substance 3.0 g/L, 1 day): 4.7% | Mean penetration for Milbemectin after time (apple leaf cuticles [5]; test substance 3.0 g/L, 2 days): 5.4% | uptake of the agrochemical active (Milbemectin), in words (apple leaf cuticles [5]; summary of Table 9, compared to the commercial formulation): strongly increases the uptake | Mean penetration for lodosulfuron-methyl after time (apple leaf cuticles [6]; test substance 0.3 g/L, 1 day): 1.0% | Mean penetration for lodosulfuron-methyl after time (apple leaf cuticles [6]; test substance 0.3 g/L, 2 days): 1.5% | Mean penetration for lodosulfuron-methyl after time (apple leaf cuticles [6]; test substance 1.0 g/L, 1 day): 2.3% | Mean penetration for lodosulfuron-methyl after time (apple leaf cuticles [6]; test substance 1.0 g/L, 2 days): 3.3% | Mean penetration for lodosulfuron-methyl after time (apple leaf cuticles [6]; test substance 3.0 g/L, 1 day): 7.6% | Mean penetration for lodosulfuron-methyl after time (apple leaf cuticles [6]; test substance 3.0 g/L, 2 days): 8.8% | uptake of the active ingredient (lodosulfuron-methyl), in words (apple leaf cuticles [6]; summary of Table 6): strongly increases the uptake | Dynamic Surface tension ([7]; 0.3 g/L, 20 ms): 61.2 mN/m | Dynamic Surface tension ([7]; 0.3 g/L, 50 ms): 57.3 mN/m | Dynamic Surface tension ([7]; 0.3 g/L, 100 ms): 54.4 mN/m | Dynamic Surface tension ([7]; 0.3 g/L, 200 ms): 51.5 mN/m | Dynamic Surface tension ([7]; 1 g/L, 20 ms): 47.6 mN/m | Dynamic Surface tension ([7]; 1 g/L, 50 ms): 44.5 mN/m | Dynamic Surface tension ([7]; 1 g/L, 100 ms): 42.1 mN/m | Dynamic Surface tension ([7]; 1 g/L, 200 ms): 39.8 mN/m | Dynamic Surface tension ([7]; 3 g/L, 20 ms): 33.7 mN/m | Dynamic Surface tension ([7]; 3 g/L, 50 ms): 32.0 mN/m | Dynamic Surface tension ([7]; 3 g/L, 100 ms): 30.8 mN/m | Dynamic Surface tension ([7]; 3 g/L, 200 ms): 29.5 mN/m | Dynamic Surface tension ([7]; 10 g/L, 20 ms): 30.2 mN/m | Dynamic Surface tension ([7]; 10 g/L, 50 ms): 29.3 mN/m | Dynamic Surface tension ([7]; 10 g/L, 100 ms): 28.6 mN/m | Dynamic Surface tension ([7]; 10 g/L, 200 ms): 27.9 mN/m
